Test results from publication PMC12655438, “Inhibitory Activity of Calcium and Sodium Ion Channels of Neurotoxic Protoplaythoa variabilis V-Shape Helical Peptide Analogs and Their Neuroprotective Effect In Vitro” (Pharmaceuticals, 2025).
“Also recorded” adds a separate entry of the source. Where two headings read alike, the source gives them in different places. Where a SMILES comes first, the peptide text is derived from it. Bridges are numbered along the chain shown (N, C = ends).

How the values were obtained:
[1] = tested on: sodium inward current (INa) in bovine chromaffin cells; assay: Sodium current (INa) block, whole-cell patch clamp in bovine chromaffin cells; assay type: cell-based; details: for Block of INa: 10 ms pulses to 0 mV, holding -80 mV, 0 mM external Ca2+, pH 7.4, 22–24 °C, end of 3-min superfusion (legend: 1 min), mean ± SEM, n = 3–6 cells; for IC50: peak INa, fit to an exponential function, 1, 3, 10 μM, read-out: IC50 for sodium current blockade
[2] = tested on: voltage-dependent potassium current (IKv) in bovine chromaffin cells; assay: Voltage-dependent potassium current (IKv) block, whole-cell patch clamp in bovine chromaffin cells; assay type: cell-based; details: for Block of IKv: 10 µM, 400 ms pulses to 100 mV, holding -80 mV, 2 mM Ca2+, 200 μM Cd2+, 22–24 °C, mean ± SEM, n = 3–4 cells
[3] = tested on: voltage-dependent Ca^2+ channel (ICa) in bovine chromaffin cells; assay type: cell-based; details: for Block of ICa: 50 ms pulses to 0 mV, holding -80 mV, 10 mM Ca2+, 5 μM TTX, pH 7.4, 22–24 °C, end of 1-min superfusion; for IC50: peak ICa, fit to an exponential function, 1, 3, 10 μM, read-out: IC50 for calcium current blockade
[4] = tested on: intracellular calcium level ([Ca^2+]c) in bovine chromaffin cells; assay: Intracellular calcium level with Fluo-4-AM in K+-stimulated bovine chromaffin cells; assay type: cell-based; details: for Reduction of [Ca2+]c: Fluo-4, K+ stimulus (text 35 µM, legend 35 mM), room temperature, fluorescence 488/522 nm, mean ± SEM; for Reduction of fluorescence compared with baseline: p ≤ 0.001; for IC50: K+-stimulated, fit to an exponential function, 1, 3, 10 μM, read-out: IC50 for depression of the intracellular calcium increment
[5] = tested on: human neuroblastoma (SH-SY5Y) cells; details: for Cell viability: 24 h
[6] = tested on: voltage-gated sodium channels in vertebrates; details: ref [14]; cited from earlier work
Text: (§1) Previously, we investigated the synthetic versions of the linear PpVα and the folded PpVα analog, which contains an internal single disulfide bond, and the linear, chimeric PpVα.

[7] = TFA salt, lyophilized powder, ref China Peptides (custom peptide service), cited from earlier work
[8] = tested on: human neuroblastoma (SH-SY5Y) cells
zebrafish larvae = details: cited from earlier work; for LD50 in zebrafish larvae: concentration causing 50% of death
[9] = tested on: 6-OHDA-induced neurotoxicity on zebrafish locomotor behavior; details: ROS, dopaminergic neurons, ref [14], cited from earlier work
Text: Previously, we investigated the synthetic versions of the linear PpVα and the folded PpVα analog, which contains an internal single disulfide bond, and the linear, chimeric PpVα. […] [17].

[10] = tested on: zebrafish model of epilepsy; details: ref [14]; cited from earlier work
Text: as §1

Cav channels (Cav2.2) = details: cited from earlier work
[11] = 1 μM, mean ± SEM, n = 3–5 cells (legend: 5–6)
[12] = 3 μM, mean ± SEM of 5–6 experiments
[13] = 10 μM, mean ± SEM of 5–6 experiments

Compound	Block of INa ([1]; 3 μM)	Block of INa ([1]; 10 μM)	IC50 [1]	Block of IKv [2]	Block of ICa [3, 11]	Block of ICa [3, 13]	IC50 [3]	Reduction of [Ca2+]c ([4]; 1 μM)	Reduction of [Ca2+]c ([4]; 3 μM)	Reduction of [Ca2+]c ([4]; 10 μM)	IC50 [4]	Cell viability ([5]; 1 μM)	Cell viability ([5]; 3 μM)	Cell viability ([5]; 10 μM)	further results
CC[C@H](C)[C@H](NC(=O)[C@H](CC(C)C)NC(=O)[C@H](CCC(=O)O)NC(=O)CN)C(=O)N[C@@H](CCCCN)C(=O)N[C@@H](CCSC)C(=O)N[C@@H](CCCCN)C(=O)N[C@@H](Cc1ccc(O)cc1)C(=O)N[C@@H](Cc1c[nH]c2ccccc12)C(=O)N[C@H](C(=O)N[C@@H](CC(C)C)C(=O)N[C@@H](CC(N)=O)C(=O)N[C@H](C(=O)N1CCC[C@H]1C(=O)N[C@@H](C)C(=O)N[C@@H](CO)C(=O)N[C@H](C(=O)N[C@@H](CS)C(=O)N[C@@H](CC(=O)O)C(=O)N[C@@H](CCC(=O)O)C(=O)N[C@@H](Cc1ccc(O)cc1)C(=O)N[C@@H](CS)C(=O)N[C@@H](Cc1c[nH]c2ccccc12)C(=O)N[C@@H](CO)C(=O)N[C@@H](CCC(N)=O)C(=O)N[C@@H](CCSC)C(=O)N[C@@H](CC(C)C)C(=O)N[C@@H](CC(C)C)C(=O)N[C@@H](Cc1ccc(O)cc1)C(=O)N[C@@H](CCCCN)C(=O)N[C@@H](CCCCN)C(=O)N[C@@H](CO)C(N)=O)C(C)C)C(C)C)[C@@H](C)CC [CHI] (H-GELIKMKYWILNVPASVCDEYCWSQMLLYKKS-NH2; N-terminus assumed)	22.05 ± 3.61%	75.57 ± 5.05%	7.65 µM	1.21 ± 2.42%	10.74 ± 0.61%	63.43 ± 4.76%	8.88 µM	33.2 ± 9.4%	36.0 ± 8.2%	65.0 ± 4.7%	6.89 µM	71%	73%	67%	Block of INa ([1]; 1 μM): 14.79 ± 2.16%; Effect on INa at low concentrations ([1]; 1 and 3 μM): no effect on INa; Block of ICa [3, 12]: 14.28 ± 2.08%; Reduction of fluorescence compared with baseline ([4]; 10 μM): more than 60%; Block of voltage-gated sodium channels in vertebrates [6]: effective blockers of voltage-gated sodium channels in vertebrates; Solubility ([7]; in 20%ACN/80%H2O): 1000 µg/mL
CC[C@H](C)[C@H](NC(=O)[C@H](Cc1c[nH]c2ccccc12)NC(=O)[C@H](Cc1ccc(O)cc1)NC(=O)[C@@H](N)CCCCN)C(=O)N[C@@H](CC(C)C)C(=O)N[C@@H](CC(N)=O)C(=O)N[C@H](C(=O)N1CCC[C@H]1C(=O)N[C@@H](C)C(=O)N[C@@H](CO)C(=O)N[C@H](C(=O)N[C@@H](CS)C(=O)N[C@@H](CC(=O)O)C(=O)N[C@@H](CCC(=O)O)C(=O)N[C@@H](Cc1ccc(O)cc1)C(=O)N[C@@H](CS)C(=O)N[C@@H](Cc1c[nH]c2ccccc12)C(=O)N[C@@H](CO)C(=O)N[C@@H](CCC(N)=O)C(=O)N[C@@H](CCSC)C(=O)N[C@@H](CC(C)C)C(=O)N[C@@H](CC(C)C)C(=O)N[C@@H](Cc1ccc(O)cc1)C(=O)N[C@@H](CCCCN)C(=O)N[C@@H](CCCCN)C(=O)N[C@@H](CO)C(N)=O)C(C)C)C(C)C [PPA] (H-KYWILNVPASVCDEYCWSQMLLYKKS-NH2; N-terminus assumed)	28.92 ± 4.60%	54.32 ± 8.29%	9.08 µM	14.04 ± 5.99%	19.92 ± 5.32%	52.86 ± 8.69%	8.77 µM	38.5 ± 7.1%	38.7 ± 10.8%	60.9 ± 6.1%	6.95 µM	77%	71%	60%	Block of INa ([1]; 1 μM): 14.80 ± 5.05%; Block of ICa [3, 12]: 38.50 ± 7.14%; Reduction of fluorescence compared with baseline ([4]; 10 μM): more than 60%; Neuroprotection against veratridine, in words ([8]; veratridine, 24 h): lower neuroprotection than SSB and CHI; Survival rate of zebrafish larvae (zebrafish larvae; 1–30 µM, three different times, ref [14],[53]): decrease in survival rate to a minimum, for example, within 20 min at 3 µM peptide; LD50 in zebrafish larvae (zebrafish larvae; ref [14],[53]): 21.23 µM; Solubility ([7]; in 30%ACN/70%H2O): 1000 µg/mL
CC[C@H](C)[C@H](NC(=O)[C@H](Cc1c[nH]c2ccccc12)NC(=O)[C@H](Cc1ccc(O)cc1)NC(=O)[C@@H](N)CCCCN)C(=O)N[C@@H](CC(C)C)C(=O)N[C@@H](CC(N)=O)C(=O)N[C@H](C(=O)N1CCC[C@H]1C(=O)N[C@@H](C)C(=O)N[C@@H](CO)C(=O)N[C@H](C(=O)N[C@H]1CSSC[C@@H](C(=O)N[C@@H](Cc2c[nH]c3ccccc23)C(=O)N[C@@H](CO)C(=O)N[C@@H](CCC(N)=O)C(=O)N[C@@H](CCSC)C(=O)N[C@@H](CC(C)C)C(=O)N[C@@H](CC(C)C)C(=O)N[C@@H](Cc2ccc(O)cc2)C(=O)N[C@@H](CCCCN)C(=O)N[C@@H](CCCCN)C(=O)N[C@@H](CO)C(N)=O)NC(=O)[C@H](Cc2ccc(O)cc2)NC(=O)[C@H](CCC(=O)O)NC(=O)[C@H](CC(=O)O)NC1=O)C(C)C)C(C)C [SSB] (H-KYWILNVPASVCDEYCWSQMLLYKKS-NH2; disulfide 12-16; N-terminus assumed)	52.01 ± 11.02%	73.76 ± 6.37%	3.15 µM	12.84 ± 4.19%	10.10 ± 7.22%	74.46 ± 5.00%	9.68 µM	28.1 ± 6.0%	33.3 ± 7.9%	42.7 ± 7.4%	26 µM	75%	68%	65%	Effect on voltage-dependent potassium current ([2]; up to 10 µM): no effect on IKv was observed; LD50 in zebrafish larvae (zebrafish larvae; ref [14],[53]): 10.88 µM; Toxicity relative to the linear peptide (zebrafish larvae; zebrafish model, ref [14]): less toxic than the linear peptide; Effect on 6-OHDA-induced neurotoxicity ([9]; listed as folded PpVα): reversing the 6-hydroxydopamine (6-OHDA)-induced neurotoxicity on zebrafish locomotor behavior; also recorded: preventing the 6-OHDA-induced excessive ROS generation and subsequent dopaminergic neuron loss; Effect on 6-OHDA-induced neurotoxicity ([9]; listed as folded peptide): more effective than the linear unfolded peptide in suppressing 6-OHDA-induced neurotoxicity on locomotor behavior in zebrafish; Effect on 6-OHDA-induced neurotoxicity ([9]; listed as folded-PpVα): prevented the 6-OHDA-induced excessive ROS generation and subsequent dopaminergic neuron loss; Block of voltage-gated sodium channels in vertebrates [6]: effective blockers of voltage-gated sodium channels in vertebrates; Antiepileptic and neuroprotective activities [10]: displayed antiepileptic and neuroprotective activities; Solubility ([7]; in 30%ACN/70%H2O): 1000 µg/mL
COc1ccc2[nH]cc(CCNC(C)=O)c2c1 [melatonin, reference compound]	–	–	–	–	–	–	–	–	–	–	–	–	–	–	Reversion of cell damage ([5]; O/R (3 μM/4 μM) 24 h): approximately 80%; Cell viability with MLT ([5]; positive control against O/R, mean): 82%
NC1=N[C@H](O)[C@H]2[C@H]3O[C@]4(O)O[C@@H]([C@@H](O)[C@@]2(N1)[C@@H]4O)[C@]3(O)CO [tetrodotoxin]	–	–	–	–	–	–	–	–	–	–	–	–	–	–	Cell viability with TTX [8]: 85.41%; Neuroprotection against veratridine, in words [8]: almost wholly reverted the cellular damage
COc1ccc(C(=O)O[C@H]2CC[C@@]3(C)[C@@H]4CC[C@H]5[C@]6(O)C[C@H](O)[C@@]7(O)[C@@H](CN8C[C@@H](C)CC[C@H]8[C@@]7(C)O)[C@]6(O)C[C@@]53O[C@]24O)cc1OC [veratridine]	–	–	–	–	–	–	–	–	–	–	–	–	–	–	Cell viability, inducer alone (VTD) ([8]; veratridine 24 h, no peptide, untreated control 100, mean): 49.21%; Mortality rate compared with untreated cells ([8]; veratridine, 24 h): 50%
ziconotide	–	–	–	–	–	–	–	–	–	–	–	–	–	–	Cav channel inhibition (Cav channels (Cav2.2)): highly selective and potent inhibitor of Cav channels
